Data published in patent US12018059B2, “Human amylin analog polypeptides and methods of use” (Intarcia Therapeutics, Inc., priority 2018, dated 2024).
Positions of bridges follow the written chain, without caps; N, C: chain ends. Residues, ends and D or L forms follow the SMILES beside them.

assay: Pharmacokinetics, 3-hour intravenous infusion of linear (non-acylated) polypeptides; parameters: species or system Sprague-Dawley rats; conditions: rat, in vivo, 0.1 mg/kg; linear polypeptides; 3-hour intravenous infusion, 0.100 mg/kg, male Sprague-Dawley rats; read-out: CL
Experimental: Peptides were dissolved in sterile saline and administered as a 3-hour intravenous infusion to non-fasted male Sprague-Dawley rats (n=3 per group) via femoral vein cannula at a final dose of 0.100 mg/kg. […] Blood samples (approximately 250 μL) were collected for pharmacokinetic analysis via a jugular vein cannula at 0.25, 0.5, 1, 2, 3, 3.17, 3.33, 3.5, 4, 4.5, 5, and 6 hr post-start of infusion (long method) or at 1, 1.5, 2, 2.5, and 3 hr post-start of infusion (steady-state screening method). All samples were collected into microtainer tubes containing K2EDTA as anticoagulant and 25 μL of a protease inhibitor cocktail. Plasma was prepared by centrifugation and stored at −80° C. until analysis. The results of this analysis are shown in Table 9 and few exemplars in FIGS. 3a-3b.
A 60 μL aliquot of each plasma sample was placed into to a 96-well plate. To each well was added 6 μL of 0.5% Tween-20. Plates were then vortexed mixed for 10 minutes at 1200 rpm before 180 μL of 0.1% TFA in 2:1 ethanol:acetonitrile containing an appropriate internal standard was added to each well. Plates were vortex mixed for 5 min at 1300 rpm, and then centrifuged for 10 min at 2844×g. Supernatants (180 μL) were placed into a clean 96-well plate and evaporated under a nitrogen stream at 45° C. Residues were reconstituted in 80 μL of 20% acetonitrile (aq) containing 0.1% formic acid.
A […] aliquot of each plasma sample was diluted with […] of 10 mM ammonium acetate (pH 6.8) containing an appropriate internal standard and loaded onto an Oasis WCX microElution plate (Waters Corporation, Milford, MA) that had been pre-conditioned with […] of methanol and […] of deionized water. Samples were washed with […] of 5% ammonium hydroxide (aq) followed by […] of 20% acetonitrile in water. The analyte was eluted with […] of 5% formic acid in 75:25 acetonitrile:water. The eluent was dried under a nitrogen stream. Residues were reconstituted in 80 μL of 20% acetonitrile (aq) containing 0.1% formic acid.
All calibration standards were prepared in control rat plasma containing K2EDTA and protease inhibitor cocktail.
Samples and standards were analyzed by TurbolonSpray™ UPLC-MS/MS using a system consisting of a CTC HTS PAL auto-injector (Leap, Carrboro, NC), an Agilent Infinity 1290 system with column oven (Palo Alto, CA), a Valco switching valve (Houston, TX), and either an AB Sciex API 5600 TripleTOF™ or Sciex API 4000QTrap mass spectrometer (Framingham, MA). Samples were injected onto a 2.1×50 mm reverse phase C18 analytical column, typically a Waters CORTECS UPLC C18+, 1.6 μm (Waters Corporation, Milford, MA) or similar. […] Initial conditions consisted of 90% A and 10% B. The organic component was increased to 95% B over a period of 3-4 minutes, depending on the peptide. Typical flow rates were 600 μL/min. The column temperature was held constant at 40 or 50° C. Peptides were quantified by monitoring one or more product ions produced from a multiply charged parent ion.

**Q.** Which clearance does the source give for `CC[C@H](C)[C@H](NC(=O)[C@@H]1CCCN1C(=O)CNC(=O)[C@H](Cc1ccccc1)NC(=O)[C@H](CC(N)=O)NC(=O)[C@H](CC(N)=O)NC(=O)[C@H](CO)NC(=O)[C@H](CO)NC(=O)[C@H](Cc1c[nH]cn1)NC(=O)[C@@H](NC(=O)[C@H](CC(C)C)NC(=O)[C@H](CCC(=O)O)NC(=O)[C@H](CC(N)=O)NC(=O)[C@H](C)NC(=O)[C@H](CC(C)C)NC(=O)[C@H](CCCNC(=N)N)NC(=O)[C@H](CCC(N)=O)NC(=O)[C@@H](NC(=O)[C@H](C)NC(=O)[C@@H]1CSSC[C@H](NC(=O)[C@@H](N)CO)C(=O)N[C@@H](CC(N)=O)C(=O)N[C@@H]([C@@H](C)O)C(=O)N[C@@H](CO)C(=O)N[C@@H]([C@@H](C)O)C(=O)N1)[C@@H](C)O)C(C)C)C(=O)N[C@@H](CC(C)C)C(=O)N1CCC[C@H]1C(=O)N1CCC[C@H]1C(=O)N[C@H](C(=O)N[C@@H](CC(N)=O)C(=O)N[C@H](C(=O)NCC(=O)N[C@@H](CO)C(=O)N[C@@H](CC(N)=O)C(=O)N[C@H](C(=O)N[C@@H](Cc1ccc(O)cc1)C(N)=O)[C@@H](C)O)C(C)C)[C@@H](C)O` [Compound A44] (H-SCNTSTCATQRLANELVHSSNNFGPILPPTNVGSNTY-NH2; disulfide 2-7) here?
**A.** Its clearance is 14.2 mL/min/kg.

**Q.** With `CC[C@H](C)[C@H](NC(=O)[C@@H]1CCCN1C(=O)CNC(=O)[C@H](Cc1ccccc1)NC(=O)[C@H](CC(N)=O)NC(=O)[C@H](CC(N)=O)NC(=O)[C@H](CO)NC(=O)[C@H](CO)NC(=O)[C@H](CCCNC(=N)N)NC(=O)[C@H](Cc1c[nH]cn1)NC(=O)[C@H](CC(C)C)NC(=O)[C@H](CCC(=O)O)NC(=O)[C@H](CC(N)=O)NC(=O)[C@H](C)NC(=O)[C@H](CC(C)C)NC(=O)[C@H](CCCNC(=N)N)NC(=O)[C@H](CCC(N)=O)NC(=O)[C@@H](NC(=O)[C@H](C)NC(=O)[C@@H]1CSSC[C@H](NC(=O)[C@@H](N)CO)C(=O)N[C@@H](CC(N)=O)C(=O)N[C@@H]([C@@H](C)O)C(=O)N[C@@H](CO)C(=O)N[C@@H]([C@@H](C)O)C(=O)N1)[C@@H](C)O)C(=O)N[C@@H](CC(C)C)C(=O)N1CCC[C@H]1C(=O)N1CCC[C@H]1C(=O)N[C@H](C(=O)N[C@@H](CC(N)=O)C(=O)N[C@H](C(=O)NCC(=O)N[C@@H](CO)C(=O)N[C@@H](CC(N)=O)C(=O)N[C@H](C(=O)N[C@@H](Cc1ccc(O)cc1)C(N)=O)[C@@H](C)O)C(C)C)[C@@H](C)O` [Compound A45] (H-SCNTSTCATQRLANELHRSSNNFGPILPPTNVGSNTY-NH2; disulfide 2-7) as the compound, how does the clearance read?
**A.** The clearance was 21.1 mL/min/kg.

**Q.** For `CC[C@H](C)[C@H](NC(=O)[C@@H]1CCCN1C(=O)CNC(=O)[C@H](Cc1ccccc1)NC(=O)[C@H](CC(N)=O)NC(=O)[C@H](CC(N)=O)NC(=O)[C@H](CO)NC(=O)[C@H](CO)NC(=O)[C@H](CCCNC(=N)N)NC(=O)[C@H](Cc1c[nH]cn1)NC(=O)[C@H](CC(C)C)NC(=O)[C@H](Cc1ccc(O)cc1)NC(=O)[C@H](CC(N)=O)NC(=O)[C@H](C)NC(=O)[C@H](CC(C)C)NC(=O)[C@H](CCCNC(=N)N)NC(=O)[C@H](CCC(N)=O)NC(=O)[C@@H](NC(=O)[C@H](C)NC(=O)[C@@H]1CSSC[C@H](NC(=O)[C@@H](N)CO)C(=O)N[C@@H](CC(N)=O)C(=O)N[C@@H]([C@@H](C)O)C(=O)N[C@@H](C)C(=O)N[C@@H](CO)C(=O)N1)[C@@H](C)O)C(=O)N[C@@H](CC(C)C)C(=O)N1CCC[C@H]1C(=O)N1CCC[C@H]1C(=O)N[C@H](C(=O)N[C@@H](CC(N)=O)C(=O)N[C@H](C(=O)NCC(=O)N[C@@H](CO)C(=O)N[C@@H](CC(N)=O)C(=O)N[C@H](C(=O)N[C@@H](Cc1ccc(O)cc1)C(N)=O)[C@@H](C)O)C(C)C)[C@@H](C)O` [Compound A61] (H-SCNTASCATQRLANYLHRSSNNFGPILPPTNVGSNTY-NH2; disulfide 2-7), which clearance is on record?
**A.** Its clearance is 22.8 mL/min/kg.

same assay, conditions: rat, in vivo, iv, 0.1 mg/kg

**Q.** Which clearance does the source give for `CC[C@H](C)[C@H](NC(=O)[C@@H]1CCCN1C(=O)CNC(=O)[C@H](Cc1ccccc1)NC(=O)[C@H](CC(N)=O)NC(=O)[C@H](CC(N)=O)NC(=O)[C@H](CO)NC(=O)[C@H](CO)NC(=O)[C@H](CCCCN)NC(=O)[C@H](Cc1c[nH]cn1)NC(=O)[C@H](CC(C)C)NC(=O)[C@H](CCC(=O)O)NC(=O)[C@H](CC(N)=O)NC(=O)[C@H](C)NC(=O)[C@H](CC(C)C)NC(=O)[C@H](CCCNC(=N)N)NC(=O)[C@H](CCC(N)=O)NC(=O)[C@@H](NC(=O)[C@H](C)NC(=O)[C@@H]1CSSC[C@H](NC(=O)[C@@H](N)CO)C(=O)N[C@@H](CC(N)=O)C(=O)N[C@@H]([C@@H](C)O)C(=O)N[C@@H](CO)C(=O)N[C@@H]([C@@H](C)O)C(=O)N1)[C@@H](C)O)C(=O)N[C@@H](CC(C)C)C(=O)N1CCC[C@H]1C(=O)N1CCC[C@H]1C(=O)N[C@H](C(=O)N[C@@H](CCCCN)C(=O)N[C@H](C(=O)NCC(=O)N[C@@H](CO)C(=O)N[C@@H](CCC(=O)O)C(=O)N[C@H](C(=O)N[C@@H](Cc1ccc(O)cc1)C(N)=O)[C@@H](C)O)C(C)C)[C@@H](C)O` [Compound A57] (H-SCNTSTCATQRLANELHKSSNNFGPILPPTKVGSETY-NH2; disulfide 2-7) here?
**A.** Its clearance is 10.7 mL/min/kg.

**Q.** For `CC[C@H](C)[C@H](NC(=O)[C@@H]1CCCN1C(=O)CNC(=O)[C@H](Cc1ccccc1)NC(=O)[C@H](CC(N)=O)NC(=O)[C@H](CC(N)=O)NC(=O)[C@H](CO)NC(=O)[C@H](CO)NC(=O)[C@H](CCCCN)NC(=O)[C@H](CCC(N)=O)NC(=O)[C@H](CC(C)C)NC(=O)[C@H](Cc1ccccc1)NC(=O)[C@H](CC(N)=O)NC(=O)[C@H](C)NC(=O)[C@H](CC(C)C)NC(=O)[C@H](CCCNC(=N)N)NC(=O)[C@H](CO)NC(=O)[C@@H](NC(=O)[C@H](C)NC(=O)[C@@H]1CSSC[C@H](NC(=O)[C@@H](N)CO)C(=O)N[C@@H](CC(N)=O)C(=O)N[C@@H]([C@@H](C)O)C(=O)N[C@@H](CO)C(=O)N[C@@H]([C@@H](C)O)C(=O)N1)[C@@H](C)O)C(=O)N[C@@H](CC(C)C)C(=O)N1CCC[C@H]1C(=O)N1CCC[C@H]1C(=O)N[C@H](C(=O)N[C@@H](CCCCN)C(=O)N[C@H](C(=O)NCC(=O)N[C@@H](CO)C(=O)N[C@@H](CCC(=O)O)C(=O)N[C@H](C(=O)N[C@@H](Cc1ccc(O)cc1)C(N)=O)[C@@H](C)O)C(C)C)[C@@H](C)O` [Compound A62] (H-SCNTSTCATSRLANFLQKSSNNFGPILPPTKVGSETY-NH2; disulfide 2-7), which clearance is on record?
**A.** The clearance was 18.8 mL/min/kg.

**Q.** With `CC[C@H](C)[C@H](NC(=O)[C@@H]1CCCN1C(=O)CNC(=O)[C@H](Cc1ccccc1)NC(=O)[C@H](CC(N)=O)NC(=O)[C@H](CC(N)=O)NC(=O)[C@H](CO)NC(=O)[C@H](CO)NC(=O)[C@H](Cc1c[nH]cn1)NC(=O)[C@@H](NC(=O)[C@H](CC(C)C)NC(=O)[C@H](Cc1ccc(O)cc1)NC(=O)[C@H](CC(N)=O)NC(=O)[C@H](C)NC(=O)[C@H](CC(C)C)NC(=O)[C@H](CCCNC(=N)N)NC(=O)[C@H](CO)NC(=O)[C@@H](NC(=O)[C@H](C)NC(=O)[C@@H]1CSSC[C@H](NC(=O)[C@@H](N)CO)C(=O)N[C@@H](CC(N)=O)C(=O)N[C@@H]([C@@H](C)O)C(=O)N[C@@H](CO)C(=O)N[C@@H]([C@@H](C)O)C(=O)N1)[C@@H](C)O)C(C)C)C(=O)N[C@@H](CC(C)C)C(=O)N1CCC[C@H]1C(=O)N1CCC[C@H]1C(=O)N[C@H](C(=O)N[C@@H](CCCCN)C(=O)N[C@H](C(=O)NCC(=O)N[C@@H](CO)C(=O)N[C@@H](CCC(=O)O)C(=O)N[C@H](C(=O)N[C@@H](Cc1ccc(O)cc1)C(N)=O)[C@@H](C)O)C(C)C)[C@@H](C)O` [Compound A111] (H-SCNTSTCATSRLANYLVHSSNNFGPILPPTKVGSETY-NH2; disulfide 2-7) as the compound, how does the clearance read?
**A.** The clearance was 20 mL/min/kg.
